Where “and” joins values, the source holds several entries; their conditions need not be identical. Equal entries are not always repeated.
test system: SARS-CoV-2, isolate USA-WA1/2020; experiment: microbe, parasite or virus in culture; assay type: cell-based; conditions: HeLa-ACE2 SARS-CoV-2 antiviral effect without P-gp inhibitor; maximum measured response

Q: Which perc_max_measured does the source give for Cn1ncc(-c2cc3c(N[C@@H](c4ccc5c(n4)OCCO5)C(C)(C)C)ncnc3[nH]2)c1C#N [ASAP-0011221] here?
A: The perc_max_measured was 101.751%.

same assay, conditions: HeLa-ACE2 SARS-CoV-2 antiviral effect without P-gp inhibitor; maximum measured response of dose series

Q: With Cn1ncc(-c2cc3c(N[C@@H](c4ccc5c(n4)OCCO5)C(C)(C)C)ncnc3[nH]2)c1C#N [ASAP-0011221] as the compound, how does the perc_max_measured read?
A: The perc_max_measured was 108.122%.

same assay, conditions: HeLa-ACE2 SARS-CoV-2 antiviral effect without P-gp inhibitor; minimum measured response

Q: Which perc_min_measured does the source give for Cn1ncc(-c2cc3c(N[C@@H](c4ccc5c(n4)OCCO5)C(C)(C)C)ncnc3[nH]2)c1C#N [ASAP-0011221] here?
A: Its perc_min_measured is 4.671%.

same assay, conditions: HeLa-ACE2 SARS-CoV-2 antiviral effect without P-gp inhibitor; minimum measured response of dose series

Q: With Cn1ncc(-c2cc3c(N[C@@H](c4ccc5c(n4)OCCO5)C(C)(C)C)ncnc3[nH]2)c1C#N [ASAP-0011221] as the compound, how does the perc_min_measured read?
A: Its perc_min_measured is 8.006%.

same assay, conditions: HeLa-ACE2 SARS-CoV-2 antiviral effect without P-gp inhibitor; read-out: ec50

Q: Which EC50 does the source give for Cn1ncc(-c2cc3c(N[C@@H](c4ccc5c(n4)OCCO5)C(C)(C)C)ncnc3[nH]2)c1C#N [ASAP-0011221] here?
A: The EC50 was 1490 nM and 1600 nM.

same assay, conditions: HeLa-ACE2 SARS-CoV-2 antiviral effect without P-gp inhibitor; read-out: ec90

Q: For Cn1ncc(-c2cc3c(N[C@@H](c4ccc5c(n4)OCCO5)C(C)(C)C)ncnc3[nH]2)c1C#N [ASAP-0011221], which EC90 is on record?
A: Its EC90 is greater than 20000 nM.

test system: not listed separately; experiment: In vitro mouse hepatocyte stability; assay type: in vitro ADME; conditions: not given
Description: (§1) Supplement media-1.zip/Hepatocyte_Stability.csv, table | column: clint; t_half

Q: Which clint does the source give for Cn1ncc(-c2cc3c(N[C@@H](c4ccc5c(n4)OCCO5)C(C)(C)C)ncnc3[nH]2)c1C#N [ASAP-0011221] here?
A: Its clint is 292.0 uL/min/1E6 cells.

Q: What about the t_half of the same compound?
A: The t_half was 2.37 min.

test system: not listed separately; experiment: In vitro dog hepatocyte stability; assay type: in vitro ADME; conditions: not given
Description: as §1

Q: Which clint does the source give for Cn1ncc(-c2cc3c(N[C@@H](c4ccc5c(n4)OCCO5)C(C)(C)C)ncnc3[nH]2)c1C#N [ASAP-0011221] here?
A: Its clint is 3.81 uL/min/1E6 cells.

Q: What about the t_half of the same compound?
A: The t_half was 182.0 min.

target: T1, 5-HT transporter (h) (Homo sapiens, UniProt P31645); experiment: In vitro CEREP profiling, 5-HT transporter (h) (antagonist radioligand); conditions: test compound concentration 10 uM
T1 construct: purchased Eurofins Cerep (SafetyScreen44), recognised from the panel format
T1 sequence (P31645 whole entry): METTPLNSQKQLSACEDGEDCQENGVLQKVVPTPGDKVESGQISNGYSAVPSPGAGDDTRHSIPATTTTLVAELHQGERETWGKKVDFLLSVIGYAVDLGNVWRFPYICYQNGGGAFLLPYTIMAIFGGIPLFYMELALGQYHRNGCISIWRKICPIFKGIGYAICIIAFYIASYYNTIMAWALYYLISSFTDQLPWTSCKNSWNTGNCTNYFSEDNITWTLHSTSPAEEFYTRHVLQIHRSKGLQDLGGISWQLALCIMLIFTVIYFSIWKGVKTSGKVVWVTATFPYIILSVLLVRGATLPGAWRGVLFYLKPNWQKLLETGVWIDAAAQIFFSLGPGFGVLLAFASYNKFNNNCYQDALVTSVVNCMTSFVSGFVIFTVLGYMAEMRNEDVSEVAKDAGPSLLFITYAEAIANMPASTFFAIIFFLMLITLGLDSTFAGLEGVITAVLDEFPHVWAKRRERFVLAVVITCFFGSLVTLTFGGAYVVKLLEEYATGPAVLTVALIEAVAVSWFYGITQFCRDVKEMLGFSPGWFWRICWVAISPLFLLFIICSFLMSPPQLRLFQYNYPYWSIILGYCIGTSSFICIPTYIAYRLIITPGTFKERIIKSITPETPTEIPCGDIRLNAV
Description: (§2) Supplement media-1.zip/Safety_Panel_Profile.csv, table | column: perc_inhibition

Q: With Cn1ncc(-c2cc3c(N[C@@H](c4ccc5c(n4)OCCO5)C(C)(C)C)ncnc3[nH]2)c1C#N [ASAP-0011221] as the compound, how does the “perc_inhibition: % inhibition of the binding of a ligand specific for each target, 5-HT transporter (h) (antagonist radioligand)” value read?
A: Its value is 2%.

target: T2, alpha1A (h) (Homo sapiens, UniProt P35348); experiment: In vitro CEREP profiling, alpha1A (h) (antagonist radioligand); assay type: binding; conditions: test compound 10 uM
T2 construct: purchased Eurofins Cerep (SafetyScreen44), recognised from the panel format
T2 sequence (P35348 1-466): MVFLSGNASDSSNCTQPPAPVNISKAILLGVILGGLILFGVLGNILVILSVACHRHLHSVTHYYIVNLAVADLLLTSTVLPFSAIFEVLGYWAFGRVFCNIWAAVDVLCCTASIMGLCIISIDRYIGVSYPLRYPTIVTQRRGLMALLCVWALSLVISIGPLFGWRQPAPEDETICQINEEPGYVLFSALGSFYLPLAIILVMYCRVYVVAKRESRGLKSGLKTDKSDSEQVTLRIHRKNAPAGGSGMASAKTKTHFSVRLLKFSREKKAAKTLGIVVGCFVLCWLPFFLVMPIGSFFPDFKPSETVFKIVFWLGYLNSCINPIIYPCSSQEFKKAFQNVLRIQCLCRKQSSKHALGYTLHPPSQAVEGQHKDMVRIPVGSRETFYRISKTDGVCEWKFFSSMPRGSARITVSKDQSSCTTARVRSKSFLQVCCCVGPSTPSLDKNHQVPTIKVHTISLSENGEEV
Description: as §2

Q: For Cn1ncc(-c2cc3c(N[C@@H](c4ccc5c(n4)OCCO5)C(C)(C)C)ncnc3[nH]2)c1C#N [ASAP-0011221], which “perc_inhibition (% inhibition of the binding of a ligand specific for each target)” value is on record?
A: The value was 54%.

target: T3, H1 (h) (Homo sapiens, UniProt P35367); experiment: In vitro CEREP profiling, H1 (h) (antagonist radioligand); assay type: binding; conditions: test compound concentration 10 uM
T3 construct: purchased Eurofins Cerep (SafetyScreen44), recognised from the panel format
T3 sequence (P35367 whole entry): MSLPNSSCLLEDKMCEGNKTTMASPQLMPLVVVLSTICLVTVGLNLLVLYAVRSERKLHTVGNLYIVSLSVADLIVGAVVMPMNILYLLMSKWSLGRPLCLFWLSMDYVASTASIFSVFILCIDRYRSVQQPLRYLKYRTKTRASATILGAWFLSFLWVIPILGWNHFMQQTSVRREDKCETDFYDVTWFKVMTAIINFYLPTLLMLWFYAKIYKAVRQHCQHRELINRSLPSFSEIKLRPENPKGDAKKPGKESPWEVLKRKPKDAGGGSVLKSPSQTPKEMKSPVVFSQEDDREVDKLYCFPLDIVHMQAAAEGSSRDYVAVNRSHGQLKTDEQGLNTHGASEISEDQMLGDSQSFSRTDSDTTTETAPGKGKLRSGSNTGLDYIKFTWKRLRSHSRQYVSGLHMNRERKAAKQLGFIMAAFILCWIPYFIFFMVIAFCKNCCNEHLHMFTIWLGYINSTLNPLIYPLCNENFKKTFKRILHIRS
Description: as §2

Q: For Cn1ncc(-c2cc3c(N[C@@H](c4ccc5c(n4)OCCO5)C(C)(C)C)ncnc3[nH]2)c1C#N [ASAP-0011221], which “perc_inhibition (% inhibition of the binding of a ligand specific for each target)” value is on record?
A: The value was 7%.

target: T4, beta2 (h) (Homo sapiens, UniProt P07550); experiment: In vitro CEREP profiling, beta2 (h) (antagonist radioligand); assay type: binding; conditions: test compound 10 uM
T4 construct: purchased Eurofins Cerep (SafetyScreen44), recognised from the panel format
T4 sequence (P07550 whole entry): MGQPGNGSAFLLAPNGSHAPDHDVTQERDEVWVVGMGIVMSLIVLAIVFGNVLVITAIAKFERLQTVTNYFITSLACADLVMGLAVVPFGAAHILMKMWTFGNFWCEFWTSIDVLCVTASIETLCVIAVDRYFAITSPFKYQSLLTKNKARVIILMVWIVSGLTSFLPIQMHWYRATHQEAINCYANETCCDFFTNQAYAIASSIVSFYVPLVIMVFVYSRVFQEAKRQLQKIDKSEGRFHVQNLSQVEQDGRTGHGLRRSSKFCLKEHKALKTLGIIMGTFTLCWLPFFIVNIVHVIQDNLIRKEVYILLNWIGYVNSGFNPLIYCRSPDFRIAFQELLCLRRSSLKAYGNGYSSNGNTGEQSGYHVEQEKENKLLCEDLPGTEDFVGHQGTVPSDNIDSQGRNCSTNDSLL
Description: as §2

Q: With Cn1ncc(-c2cc3c(N[C@@H](c4ccc5c(n4)OCCO5)C(C)(C)C)ncnc3[nH]2)c1C#N [ASAP-0011221] as the compound, how does the “perc_inhibition (% inhibition of the binding of a ligand specific for each target)” value read?
A: The value was 4%.

test system: AR(h); experiment: In vitro CEREP profiling, AR(h) (agonist radioligand); assay type: binding, human; conditions: test compound concentration 10 uM
Description: as §2

Q: For Cn1ncc(-c2cc3c(N[C@@H](c4ccc5c(n4)OCCO5)C(C)(C)C)ncnc3[nH]2)c1C#N [ASAP-0011221], which “perc_inhibition (% inhibition of the binding of a ligand specific for each target)” value is on record?
A: Its value is 5%.

target: T5, acetylcholinesterase (h) (Homo sapiens, UniProt P22303); experiment: In vitro CEREP profiling, acetylcholinesterase (h); assay type: biochemical; conditions: test compound concentration 10 uM; Enzyme and Cell-based assays
T5 construct: purchased Eurofins Cerep (SafetyScreen44), recognised from the panel format
T5 sequence (P22303 32-614): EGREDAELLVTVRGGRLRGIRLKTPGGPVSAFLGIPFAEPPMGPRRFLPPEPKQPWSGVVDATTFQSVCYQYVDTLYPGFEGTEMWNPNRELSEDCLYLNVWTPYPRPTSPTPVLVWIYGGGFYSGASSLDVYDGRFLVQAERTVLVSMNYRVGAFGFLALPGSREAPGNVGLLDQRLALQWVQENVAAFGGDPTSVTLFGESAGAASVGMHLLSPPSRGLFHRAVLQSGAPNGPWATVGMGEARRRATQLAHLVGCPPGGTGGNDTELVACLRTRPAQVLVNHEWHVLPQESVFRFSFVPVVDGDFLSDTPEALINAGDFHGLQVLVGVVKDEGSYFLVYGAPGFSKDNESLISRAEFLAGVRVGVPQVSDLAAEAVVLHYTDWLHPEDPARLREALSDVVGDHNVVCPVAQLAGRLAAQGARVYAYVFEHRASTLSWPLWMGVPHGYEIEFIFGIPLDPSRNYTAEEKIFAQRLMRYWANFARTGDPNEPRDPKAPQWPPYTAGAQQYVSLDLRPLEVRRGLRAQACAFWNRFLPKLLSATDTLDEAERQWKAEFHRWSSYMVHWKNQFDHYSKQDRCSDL
Description: as §2

Q: With Cn1ncc(-c2cc3c(N[C@@H](c4ccc5c(n4)OCCO5)C(C)(C)C)ncnc3[nH]2)c1C#N [ASAP-0011221] as the compound, how does the “perc_inhibition: % inhibition of control enzyme activity, acetylcholinesterase (h)” value read?
A: Its value is 14%.

target: T6, CB1 (h) (Homo sapiens, UniProt P21554); experiment: In vitro CEREP profiling, CB1 (h) (agonist radioligand); assay type: binding; conditions: test compound 10 uM
T6 construct: purchased Eurofins Cerep (SafetyScreen44), recognised from the panel format
T6 sequence (P21554 whole entry): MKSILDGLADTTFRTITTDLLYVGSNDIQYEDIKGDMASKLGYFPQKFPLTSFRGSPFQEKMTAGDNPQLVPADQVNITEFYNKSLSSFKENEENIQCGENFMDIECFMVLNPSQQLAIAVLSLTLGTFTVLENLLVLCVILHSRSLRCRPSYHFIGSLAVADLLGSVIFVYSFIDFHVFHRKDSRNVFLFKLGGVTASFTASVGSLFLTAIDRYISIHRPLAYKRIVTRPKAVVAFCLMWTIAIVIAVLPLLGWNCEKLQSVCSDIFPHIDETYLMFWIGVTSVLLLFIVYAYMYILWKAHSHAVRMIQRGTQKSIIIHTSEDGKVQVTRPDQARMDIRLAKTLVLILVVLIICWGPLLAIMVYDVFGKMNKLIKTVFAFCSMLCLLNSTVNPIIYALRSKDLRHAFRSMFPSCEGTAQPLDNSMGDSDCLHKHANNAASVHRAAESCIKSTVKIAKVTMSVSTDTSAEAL
Description: as §2

Q: For Cn1ncc(-c2cc3c(N[C@@H](c4ccc5c(n4)OCCO5)C(C)(C)C)ncnc3[nH]2)c1C#N [ASAP-0011221], which “perc_inhibition (% inhibition of the binding of a ligand specific for each target)” value is on record?
A: Its value is 33%.

target: T7, mu (MOP) (h) (Homo sapiens, UniProt P35372); experiment: In vitro CEREP profiling, mu (MOP) (h) (agonist radioligand); assay type: binding; conditions: test compound concentration 10 uM
T7 construct: purchased Eurofins Cerep (SafetyScreen44), recognised from the panel format
T7 sequence (P35372 whole entry): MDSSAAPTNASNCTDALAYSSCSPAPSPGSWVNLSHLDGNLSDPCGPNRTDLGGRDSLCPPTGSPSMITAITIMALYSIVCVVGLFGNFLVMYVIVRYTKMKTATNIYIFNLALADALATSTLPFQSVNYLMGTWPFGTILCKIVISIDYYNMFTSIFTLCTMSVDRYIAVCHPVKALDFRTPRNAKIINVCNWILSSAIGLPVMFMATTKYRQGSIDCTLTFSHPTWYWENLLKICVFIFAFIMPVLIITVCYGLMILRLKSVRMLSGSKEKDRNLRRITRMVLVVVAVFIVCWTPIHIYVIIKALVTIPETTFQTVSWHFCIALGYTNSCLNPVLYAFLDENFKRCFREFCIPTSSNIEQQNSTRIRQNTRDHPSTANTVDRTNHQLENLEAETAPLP
Description: as §2

Q: For Cn1ncc(-c2cc3c(N[C@@H](c4ccc5c(n4)OCCO5)C(C)(C)C)ncnc3[nH]2)c1C#N [ASAP-0011221], which “perc_inhibition (% inhibition of the binding of a ligand specific for each target)” value is on record?
A: Its value is 28%.

test system: HeLa-ACE2 cells; experiment: not given; conditions: HeLa-ACE2 cytotoxicity

Q: For Cn1ncc(-c2cc3c(N[C@@H](c4ccc5c(n4)OCCO5)C(C)(C)C)ncnc3[nH]2)c1C#N [ASAP-0011221], which CC50 is on record?
A: The CC50 was greater than 20000 nM.

Q: And the cc10?
A: The cc10 was > 10.0 µM and > 20.0 µM.

same assay, conditions: HeLa-ACE2 cytotoxicity; highest measured response of the dose series

Q: With Cn1ncc(-c2cc3c(N[C@@H](c4ccc5c(n4)OCCO5)C(C)(C)C)ncnc3[nH]2)c1C#N [ASAP-0011221] as the compound, how does the perc_max_measured read?
A: The perc_max_measured was 97.859% and 124.489%.

same assay, conditions: HeLa-ACE2 cytotoxicity; lowest measured response of the dose series

Q: For Cn1ncc(-c2cc3c(N[C@@H](c4ccc5c(n4)OCCO5)C(C)(C)C)ncnc3[nH]2)c1C#N [ASAP-0011221], which perc_min_measured is on record?
A: Its perc_min_measured is 51.321% and 74.575%.

target: T8, 5-HT1A (h) (Homo sapiens, UniProt P08908); experiment: In vitro CEREP profiling, 5-HT1A (h) (agonist radioligand); assay type: binding; conditions: test compound concentration 10 uM
T8 construct: purchased Eurofins Cerep (SafetyScreen44), recognised from the panel format
T8 sequence (P08908 1-422): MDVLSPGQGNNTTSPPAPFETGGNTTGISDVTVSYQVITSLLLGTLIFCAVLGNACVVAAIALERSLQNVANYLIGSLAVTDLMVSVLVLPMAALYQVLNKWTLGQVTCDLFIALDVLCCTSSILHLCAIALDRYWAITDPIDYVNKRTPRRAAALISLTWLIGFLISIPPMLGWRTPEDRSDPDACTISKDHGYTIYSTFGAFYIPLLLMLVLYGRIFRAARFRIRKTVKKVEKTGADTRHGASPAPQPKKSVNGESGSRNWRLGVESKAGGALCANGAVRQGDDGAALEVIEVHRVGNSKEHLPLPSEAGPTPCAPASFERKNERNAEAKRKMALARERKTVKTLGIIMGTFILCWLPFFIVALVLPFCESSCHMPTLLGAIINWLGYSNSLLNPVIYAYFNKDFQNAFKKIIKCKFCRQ
Description: as §2

Q: Which “perc_inhibition (% inhibition of the binding of a ligand specific for each target)” value does the source give for Cn1ncc(-c2cc3c(N[C@@H](c4ccc5c(n4)OCCO5)C(C)(C)C)ncnc3[nH]2)c1C#N [ASAP-0011221] here?
A: Its value is 15%.

target: T9, ETA (h) (Homo sapiens, UniProt P25101); experiment: In vitro CEREP profiling, ETA (h) (agonist radioligand); assay type: binding; conditions: test compound 10 uM
T9 construct: purchased Eurofins Cerep (SafetyScreen44), recognised from the panel format
T9 sequence (P25101 21-427): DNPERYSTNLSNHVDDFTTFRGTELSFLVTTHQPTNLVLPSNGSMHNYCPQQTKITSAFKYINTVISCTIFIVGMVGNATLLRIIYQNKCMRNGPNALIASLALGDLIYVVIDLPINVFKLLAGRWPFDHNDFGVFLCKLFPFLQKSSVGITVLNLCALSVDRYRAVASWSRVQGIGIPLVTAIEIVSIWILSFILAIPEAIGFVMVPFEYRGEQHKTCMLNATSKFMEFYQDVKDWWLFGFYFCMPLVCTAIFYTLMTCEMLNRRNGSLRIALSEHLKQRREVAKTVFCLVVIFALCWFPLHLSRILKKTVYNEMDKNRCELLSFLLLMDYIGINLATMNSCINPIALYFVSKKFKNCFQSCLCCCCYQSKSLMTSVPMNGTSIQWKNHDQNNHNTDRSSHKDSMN
Description: as §2

Q: For Cn1ncc(-c2cc3c(N[C@@H](c4ccc5c(n4)OCCO5)C(C)(C)C)ncnc3[nH]2)c1C#N [ASAP-0011221], which “perc_inhibition (% inhibition of the binding of a ligand specific for each target)” value is on record?
A: The value was 9%.

test system: not listed separately; experiment: In vitro dog liver microsomal stability; assay type: in vitro ADME; conditions: not given
Description: Supplement media-1.zip/Hepatic_Microsomal_Stability.csv, table | column: clint; t_half

Q: For Cn1ncc(-c2cc3c(N[C@@H](c4ccc5c(n4)OCCO5)C(C)(C)C)ncnc3[nH]2)c1C#N [ASAP-0011221], which clint is on record?
A: Its clint is 17.8 µL/min/mg.

Q: And the t_half?
A: Its t_half is 38.8 min.

Source: doi:10.1101/2024.08.19.608619, “Discovery of potent SARS-CoV-2 nsp3 macrodomain inhibitors uncovers lack of translation to cellular antiviral response” (bioRxiv, 2024)
